Experimental findings from patent US6780596B2, “Methods for determining the activity of complex mixtures” (Ashni Naturaceuticals, Inc., priority 1998, dated 2004) are described below.

For the test, the system named is LNCaP prostate cells. The experiment in a line: Phosphotyrosyl protein expression in LNCaP prostate cells (SDS-PAGE, anti-phosphotyrosine immunoblot). In kind it is cell-based, human. The note with it: for number of phosphotyrosylprotein bands decreased in staining intensity / affected: of sixteen bands in dividing LNCaP cells, 15 to 90 kDa. From the text: Chemicals: Anti-phosphotyrosine antibodies may be purchased from Upstate Biotechnology (Lake Placid, N.Y.). Saw palmetto (Serenoa repens) extract may be obtained from Ashland Nutritional (Irvine Calif.). All other chemicals may be purchased from Sigma Chemical Company (St. Louis, Mo.) and are the highest purity commercially available.
Human Prostate Cell Line: The LNCaP prostate cell line (CRL-1740) is useful as a model for prostate hyperplasia and may be obtained from the American Type Culture Collection (Bethesda, Md.). LNCaP cells were originally isolated from a person and are characteristic of prostatic carcinoma. They are androgen and estrogen responsive, produce prostate specific antigen (PSA), and prostatic acid phosphatase in culture.
Cell Plating: LNCaP cells may be propagated as monolayers according to the instructions of the supplier. For experiments, cells may be plated at a density of 1×10^5 cells per mL in 100 mm plates, 20 mL per plate, 3 plates per treatment. […]
On day three, a subset of control LNCaP cells is synchronized to Go by reducing the serum concentration of the medium to 0.5%. These cells are termed quiescent, resting or unstimulated LNCaP cells.
After a four-day incubation period with the test materials, the test LNCaP cells may be collected by washing plates three times with ice-cold phosphate-buffered saline, pH 7.4 (PBS) over ice, removed by scraping, pelleted by centrifugation at 4° C. The cell pellet may be lysed for 20 min. in 20 mM Tris buffer (pH 8.0) with 137 mM NaCl, 10% glycerol, 1% Nonidet P-40, 1 mM phenylmethylsulfonyl fluoride, 0.15 units/mL aprotonin, and 1 mM sodium orthovanadate while on wet ice. Cell lysates are collected after centrifugation at 30,000 rpm at 4° C. for 10 minutes to separate cellular debris from lysates.
Gel Electrophoresis: Sodium dodecyl sulfate polyacrylamide gel electrophoresis (PAGE) is performed using 10% polyacrylamide gels, as described by Laemmli, U.K. and Favre, M., 80 Journal of Molecular Biology 575-99 (1973), with the modification that the cell lysates (100 μg protein/lane) are heated at 100° C. for three minutes.
Immunoblotting: The immunoblotting is performed as described by Towbin et al., 76 Proc. Natl. Acad. Sci. USA 4350 (1979), however, a Milliblot SDE electroblot apparatus (Millipore, Bedford, Mass.), is used to transfer proteins from the polyacrylamide gels to an IMMOBILON® membrane filter. Complete transfers are accomplished in 25-30 minutes at 500 mA. Membranes used for blotting are blocked by incubating in TBS (Tris buffered saline, 50 mM Tris, 150 mM NaCl, pH 7.5) containing 5% nonfat dry milk for 30 minutes at room temperature. Phosphotyrosylproteins are visualized by incubation of the blots with the anti-phosphotyrosine antibody in TBST (0.05% Tween 20 in TBS) for two hours and then a second incubation at room temperature with alkaline phosphatase-conjugated secondary antibody diluted 1:1000 in TBST for two hours. The enzymatic reaction is developed for 15 minutes. Molecular weights of immuno-stained proteins are estimated by adding molecular weight standards to reference lanes and staining the membrane filters with amido black 10B.
Blots are translated into TIFF-formatted files with a Microtech 600GS scanner and quantified using Scan Analysis (BIOSOFT™, Cambridge, UK). Summary scans are then printed and peak heights are measured directly from figure. One density unit (Du) is defined as one mm of the resulting peak height.
Protein Determination: Spectrophotometric determination of protein concentration is determined with bicinchoninic acid as reported by Smith, et al. Measurement of protein using bicinchoninic acid. 150 ANAL. BIOCHEM. 76-85 (1985).
Statistical Analysis: Dose responses are defined as three or more consecutive doses resulting in a consistent, reproducible appearance or disappearance of a phosphotyrosylprotein in the immunoblot. […]
(In general: A western blot detects proteins with antibodies after separation by electrophoresis.)

Turning to `CC[C@H](CC[C@@H](C)[C@H]1CC[C@H]2[C@@H]3CC=C4C[C@@H](O)CC[C@]4(C)[C@H]3CC[C@]12C)C(C)C` [beta-sitosterol], the “number of phosphotyrosylprotein bands decreased in staining intensity / affected” value is “four”. In addition, where the note is “50 μg beta-sitosterol/mL”, the “phosphotyrosylproteins at 45 and 50 kDa” value is given as “faint bands”. Moreover, where the note is “beta-sitosterol 5, 10 or 50 μg/mL”, the “concentration at which the 36 and 40 kDa phosphotyrosylproteins disappear entirely” value came to 10 µg/mL.
On to `CC(C)(C)NC(=O)[C@H]1CC[C@H]2[C@@H]3CC[C@H]4NC(=O)C=C[C@]4(C)[C@H]3CC[C@]12C` [finasteride, Finasteride], for which the “number of phosphotyrosylprotein bands decreased in staining intensity / affected” value is listed as “three”. For the setting “0.05 μg/mL finasteride”, the “40 kDa band” value is on record as “barely visible”; the “tyrosylphosphorylation of the 28 and 36 kDa proteins” value was “completely eliminated”.
Take `CC(C)=CCC/C(C)=C/C=C/C(C)=C/C=C/C(C)=C/C=C/C=C(C)/C=C/C=C(C)/C=C/C=C(\C)CCC=C(C)C` [lycopene]: the “number of phosphotyrosylprotein bands decreased in staining intensity / affected” value is listed as “fourteen”. Moreover, the “concentration at which the 15, 17 and 20 kDa phosphotyrosylproteins disappear entirely” value (lowest concentration tested) is given as 100 ng/mL.
For the compound `C/C1=C2/[N-][C@H]([C@H](CC(N)=O)[C@@]2(C)CCC(=O)NC[C@@H](C)OP(=O)([O-])O[C@H]2[C@@H](O)[C@@H](n3cnc4cc(C)c(C)cc43)O[C@@H]2CO)[C@]2(C)N=C(/C(C)=C3N=C(/C=C4N=C1[C@@H](CCC(N)=O)C\4(C)C)[C@@H](CCC(N)=O)[C@]\3(C)CC(N)=O)[C@@H](CCC(N)=O)[C@]2(C)CC(N)=O.[CH3-].[Co]` [methylcobalamine], the “number of phosphotyrosylprotein bands decreased in staining intensity / affected” value is on record as “three”. Moreover, where the note is “500 μg methylcobalamine/mL”, the “phosphotyrosylproteins at 40 and 50 kDa” value is on record as “faint bands”. Moreover, the effective concentration entry (effect on phosphotyrosylprotein expression) is given as “approximately 500 μg/mL”. Where the note is “methylcobalamine 5, 50 or 500 μg/mL”, the “concentration at which the 45 kDa phosphotyrosylprotein disappears entirely” value came to 500 µg/mL.
In the case of `C[C@H]1[C@H](C)CC[C@]2(C(=O)O)CC[C@]3(C)C(=CC[C@@H]4[C@@]5(C)CC[C@H](O)C(C)(C)[C@@H]5CC[C@]43C)[C@H]12` [ursolic acid], the “number of phosphotyrosylprotein bands decreased in staining intensity / affected” value was “ten”. For the same compound, the “concentration at which the phosphotyrosylproteins at 28, 30, 50 and 60 kDa are no longer visible” value (highest concentration tested) was 5 µg/mL. The “concentration at which the 17, 20, 28 and 34 kDa phosphotyrosylproteins disappear entirely” value (lowest concentration tested) worked out at 0.5 µg/mL.
